The values below come from patent US20060166870A1, “Treatment of glioblastoma with thymosin-alpha 1” (Rhode Island Hospital, priority 2001, published 2006).

Several values for one entry are separate records, joined by “and”; a condition that tells them apart may be missing. Equal entries are not always repeated. Entries after “also recorded” stand apart in the source; their conditions may differ. No end group written: not given here.

One series relates to 9 L glioblastoma. The note with it: for lympho-mononuclear inflammatory cell infiltrates in brain: histopathology, day 20. The procedure:
Rat 9 L glioblastoma cells were obtained from the American Type Culture Collection (Washington, D.C.) and certified as pathogen-free. The cells were maintained in Dulbecco's Modified Eagle's Medium (DMEM) supplemented with 5% fetal calf serum (FCS) and 2 mM glutamine. Antibiotics were not added to the medium. Prior to injection, the cells were rinsed with phosphate-buffered saline (PBS), detached from the culture surfaces and dissociated into single cell suspensions with 0.25% trypsin/0.05% EDTA. The dissociated cells were washed 3 times in serum-free DMEM and finally suspended in serum-free DMEM at a density of 5×10^6 viable cells/ml. Viable cell density was determined using Trypan blue exclusion and a hemocytometer chamber.
An in vivo model of glioblastoma was generated in adult (250-300 grams) Long Evans rats. Rats were anesthetized with a single intraperitoneal injection of a cocktail containing 100 mg/kg ketamine and […] in 50% ethanol. After anesthetization, the head was shaved and prepped with povidone iodine, and the rat was placed in a stereotactic headframe. A midline incision was made and a 3 mm burr hole was drilled over the frontal lobe, and 2 μl of 9 L glioma cell suspension (10,000 cells total) was injected directly into the brain using a Hamilton syringe with attached 26-gauge needle placed at a depth of 3.5 mm. After removal of the needle, the wound was washed with sterile saline, the animal was removed from the frame and the skin was closed with resorbable sutures. The rats were returned to their cages and observed for any signs of deterioration including weight loss, reduced food and water intake, hemiparesis, seizures, or inactivity. If any degree of suffering was observed, the animals were euthanized with 120 mg/kg sodium pentobarbital. Animals were observed daily and weighed weekly.
The tumor was allowed to develop for 5 days, followed by anti-neoplastic treatment. Rats were divided into 6 treatment groups: vehicle control; low (45 μg/kg) thymalfasin; high (200 μg/kg) thymalfasin; low thymalfasin+BCNU; high thymalfasin+BCNC; and BCNU (9.4 mg/kg) only. BCNU was administered as a single intraperitoneal (I.P.) injection on day 6 after the intracerebral tumor inoculation. Rats treated with thymalfasin were given single I.P. injections of thymalfasin for 3 consecutive days, beginning on day 6 after tumor cell inoculation. Rats were sacrificed on day 20 post tumor inoculation. The rats were killed by I.P. injection of 120 mg/kg sodium pentobarbital. The brains were harvested, sectioned, immersion fixed in Histochoice (Amresco Co., Solon, Ohio), and processed for paraffin embedding. Tumor burden was assessed from the gross tissue blocks and the histological sections stained with hematoxylin and eosin. Histological sections were also used in immunohistochemical staining studies to detect inflammatory cell infiltrates.
A semiquantitative histological grading scale was used to assess tumor burden for inter-group comparisons: 0—cure, no residual tumor; 1—microscopic tumor (<1 mm) confined to the superficial cortex; 2—tumor mass occupying less than 25% of the hemisphere cross section (1-2 mm); 3—tumor mass occupying up to 50% of the hemisphere cross section (2-3 mm) and extending into deep structures; 4—massive tumor burden with involvement of 50-90% of the hemisphere cross section, with herniation. The sections were coded and graded simultaneously by two separate individuals without knowledge of treatment group. […]

The subject of series [1] is Primary neuronal cortical cells. Nature of the series: Cell viability of primary cortical neuron cultures (CV and MTT). Format: cell-based. The text has this:
Primary cortical neuron cultures were studied to enable selection of thymalfasin doses that would not be toxic to non-neoplastic brain cells.
However, this dose is higher than established experimental and clinical dosages.

Series [2] concerns Rat 9 L glioblastoma cells. Nature of the series: MTT assay of mitochondrial function in thymalfasin-treated 9 L cells. The format is cell-based. Conditions: 24 hours, various concentrations of thymalfasin, vs vehicle. The procedure:
(§1) All cell lines were kept at 37° C. in a humidified atmosphere containing 5% CO2. The cell lines were obtained from the American Type Culture Collection and were certified as free of pathogens.
(§2) Thymosin alpha 1 treatment: For acute thymalfasin treatment, cells seeded in 96-well plates at a cell density of 20,000 cells/well were treated with 10^−5 M thymalfasin for 24 hours. Cells treated chronically with thymalfasin were grown in flasks and treated every 24 hours with 10^−5 M thymalfasin (added to fresh medium) for the duration of the treatment (3 days). In addition, for the determination of a dose-response curve to thymalfasin for 9 L cells, cells were treated with serially diluted amounts of thymalfasin, yielding thymalfasin concentrations ranging from 50 µM to […].
(§3) MTT assays were conducted on 9 L and 293 cell lines to determine the effects of thymalfasin treatment and/or H2O2-induced oxidative stress on the mitochondrial function of the cells. After treatment, 10 μl of MTT solution were added to each well containing 100 μl of medium. The plates were incubated with the MTT dye in the 37° C. incubator for 15 min-1 hour, depending on the cell type. The medium was then removed, and 200 μl of acidic Isopropanol was added to each well. The plates were shaken at room temperature until cell lysis occurred, and then read in a Packard SpectraCount™ machine at 540 nm.

The subject of another series is 293 human kidney cells. The series is described as follows: Microtiter immunocytochemical ELISA (MICE) assay of pro-apoptosis/survival gene products, 293 cells. Format: cell-based. The procedure:
(§4) Microtiter Immunocytochemical ELISA (MICE) Assays (de la Monte, 1999) were done on 9 L and 293 cells. Cells were seeded in 96-well plates, treated with 10^−5M thymalfasin for 24 hours, and histofixed overnight prior to analysis using MICE assay. the fixed cells were permeabilized with 0.05% saponin in Tris-buffered saline (50 mM Tris, pH 7.5, 0.9% NaCl; TBS), blocked with Superblock-TBS (Pierce, Rockford, Ill.), and then incubated overnight at 4° C. with primary antibodies to proliferating cell nuclear antigen (PCNA), bcl-2, p21/Wwaf-1, p53, FasL, FasR, TNF-R1, or GAPDH, each diluted to 0.5-1 μg/ml in TBS containing 0.05% Tween-20 and 0.5% bovine serum albumin (TBST-BSA). Immunoreactivity was detected using horseradish peroxidase conjugated secondary antibody (Pierce, Rockford, Ill.) and the TMB soluble substrate (Pierce, Rockford, Ill.). Reactions were stopped by the addition of 1 M H2SO4 and absorbances were measured at 450 nm in a Spectracount microplate reader (Packard Instrument Co., Meriden, Conn.). Subsequently, cell density was measured by staining the adherent cells with Coomassie blue dye and measuring the absorbance of the eluted dye (de la Monte, 1999). The MICE index was the calculated ratio of TMB and Coomassie blue absorbance measured in the same culture well. Mean±S.D. of results obtained from 16 replicate culture wells were used for inter-group statistical comparisons.
(§5) In this regard, the expression of gene products that promote either apoptosis or cell survival were examined, using housekeeping gene expression as control. The studies were performed in 96-well plates using the microtiter immunocytochemical ELISA […] assay to generate data from multiple replicate cultures. […] Thus, the results of the MICE assays indicate that for the two cell lines, thymalfasin works via different pathways to increase the susceptibility of the cells to cell death by apoptosis.

For series [3], the system named is 9 L glioblastoma cells. Nature of the series: Microtiter immunocytochemical ELISA (MICE) assay of pro-apoptosis/survival gene products, 9 L cells. The format is cell-based, rat. The procedure: as §4, §5
A general note: An ELISA detects its analyte on a solid surface through an enzyme-linked reagent.

The subject of series [4] is 9 L glioblastoma cells. Nature of the series: BCNU-mediated killing of thymalfasin-treated 9 L cells. Format: cell-based, rat. Conditions: 24 or 72 hours thymalfasin treatment.
For series [5], the system named is 9 L glioblastoma cells. Nature of the series: Streptolysin O + recombinant Granzyme B killing assay (ATPlite viability). The format is cell-based, rat. Conditions: thymalfasin 24 h (acute) or 72 h (chronic), then SLO+Granzyme B 1 or 3 hours, p<0.001. The procedure:
In order to determine the differential susceptibility of 9 L glioblastoma cells treated (or not) with thymalfasin to cytotoxic T-lymphocyte (CTL) induced apoptosis, experimental assays were conducted in which 9 L cells were treated both acutely for 24 hours and chronically for 72 hours with thymalfasin, after which they were harvested, re-seeded into 96-well black plates (7.5×10^5 cells/75 μl/well), and exposed to 20,000 units/ml Streptolysin O (SLO) plus 100 ng recombinant Granzyme B (reaction volume 100 μl) for 1 or 3 hours at 37° C. The SLO was used in place of perforin to permeabilize the cells, and recombinant Granzyme B was used to standardize the assay. Control studies included parallel reactions in which SLO, Granzyme B, or both were omitted. Viable cell density was measured using the ATPlite assay (Packard Instrument Company, Meriden, Conn.) which has a broad linear dynamic range correlating relative light units with cell densities between 10^3 to 10^6 cells per culture well.
In vivo, malignant neoplastic cells are killed by cytotoxic T cells and macrophages that are recruited by pro-inflammatory cytokines such as IL-2 and IL-12. […] Viability was measured using the ATP luminescence assay and within group comparisons were made to determine the relative killing associated with SLO+Granzyme B treatment. […]
For orientation: ATP-based viability assays read luminescence as a measure of living cells.

Series [6] has as its system 9 L glioblastoma cells. Nature of the series: H2O2-induced oxidative stress sensitivity of thymalfasin-treated 9 L cells (MTT). The format is cell-based, rat. The procedure: H2O2 was used with cells to induce oxidative stress. […] In the experiments in which serially diluted amounts of thymalfasin were administered to the cells, a constant amount of the […] H2O2 was used to treat the cells. For 9 L cells, an H2O2 curve was developed in order to determine the correct H2O2 concentration with which to treat the cells.
as §3
Validation of the ability of thymalfasin to increase the susceptibility of 9 L and 293 cells to apoptosis was sought testing H2O2-induced oxidative stress. As determined through MTT assays, 9 L cells treated with thymalfasin for 24 hours and subsequently H2O2 for 24 hours did indeed show significant loss in viability in comparison to 9 L cells treated only with H2O2 for 24 hours (FIG. 3).

Series [7] deals with Rat 9 L glioblastoma cells. Nature of the series: Crystal violet (CV) cell viability assay in thymalfasin-treated 9 L cells. The format is cell-based. Conditions: thymalfasin vs vehicle-treated control. The procedure: as §1, §2
Crystal Violet (CV) was also used to stain cells in 96-well plates. After discarding the medium, 20 μl of crystal violet was added to each well and shaken at room temperature for 10 minutes. The plates were then washed several times with warm water and dried. 100-200 μl (depending on cell density) of PBS w/1% SDS was added to each well. The plates were incubated at room temperature on a shaker until the cells were sufficiently lysed. The plates were read at 540 nm to detect differences in cell viability between the various groups tested.

For series [8] the following is noted: cited from earlier work.
The mark [9] stands for this setting: 10^-5 M thymalfasin, 24 hours, P<0.01.

Consider `O=NN(CCCl)C(=O)NCCCl` [BCNU, bischloroethyl nitrosurea], for which the “reduction of tumor burden in responding animals” value with 9 L glioblastoma (BCNU 9.4 mg/kg I.P. single dose, nearly half the group showed no response) is recorded as “up to 50%”. Also, in the series with 9 L glioblastoma, the “lympho-mononuclear inflammatory cell infiltrates in brain” value is given as “scant”.

Consider “Thymosin α-1 (SDAAVDTSSEITTKDLKEKKEVVEEAEN; ends and bridges not checked; UniProt P06454 2-29, looked up) [thymalfasin, 28-amino acid peptide, a synthetic form of a naturally occurring compound that is found in circulation]”, for which, in series [1] (highest concentration of thymalfasin used (3.3×10^−7M as printed)), the “decrease in viability (MTT) of primary neuronal cortical cells” value amounted to 30%. Besides, in series [1] (serial dilutions, 3.3×10^−5 M to 1×10^−9 M, experimental doses), the “cell viability of primary neuronal cortical cells” value is given as “no decrease in cell viability”. For the same molecule, in series [2], the “cell mitochondrial functioning (MTT)” value is given as “minimal effect; also recorded: insignificant decrease; also recorded: no direct effect”. In addition, in the series on 293 human kidney cells (data not shown), the “change in FasL expression” value is on record as “no significant changes”, the “change in FasR expression” value is given as “no significant changes” and the “change in TNF-R1 expression” value is reported as “no significant changes”. For the same molecule, in the series with 293 human kidney cells (thymalfasin, P<0.01, data not shown), the “reduction in bcl-2” value is listed as 36.67%. Also, in the series with 9 L glioblastoma cells [3] (setting [9]), the “increase in FasL level relative to vehicle-treated controls” value worked out at 65.89%, the “increase in FasR level relative to vehicle-treated controls” value is recorded as 44.08% and the “increase in TNF-R1 level relative to vehicle-treated controls” value is reported as 22.18%. For the same molecule, in the series with 9 L glioblastoma cells [3] (thymalfasin 24 hours), the GAPDH expression level result was “not significantly affected” and the bcl-2 expression level result is on record as “not significantly affected”. Moreover, the “9 L cells killed by sub-lethal concentrations of BCNU after thymalfasin treatment” value in the series with 9 L glioblastoma cells [4] is 40%. The “cell viability after SLO+Granzyme B relative to SLO, Granzyme B or vehicle alone” value in the series on 9 L glioblastoma cells [5] is recorded as “significant reductions in cell viability”. Further, the “tumor burden / tumor growth” value in the series with 9 L glioblastoma (Long Evans rats, 10,000 9 L cells intracerebral, I.P. treatment from day 6, sacrifice day 20, BCNU 9.4 mg/kg, thymalfasin 45 or 200 μg/kg) is listed as “the same as control or worse”. For the same molecule, in the series on 9 L glioblastoma, the “lympho-mononuclear inflammatory cell infiltrates in brain” value is recorded as “conspicuous”. Also, the “intracerebral swelling and herniation” value in the series on 9 L glioblastoma (rat, in vivo) is on record as “extreme intracerebral swelling”. Besides, the “decrease in mitochondrial functioning (MTT) vs cells treated only with H2O2” value in the series with 9 L glioblastoma cells [6] (9 L cells, thymalfasin 24 hours then 270 μM H2O2 24 hours) was 26.6%. Further, the “9 L cells killed by ordinarily non-lethal (sub-lethal) H2O2 after thymalfasin treatment” value in the series with 9 L glioblastoma cells [6] (24 or 72 hours thymalfasin treatment) is 25% and 30-50%. The “cell viability / direct cytotoxic effect” value in series [7] is reported as “minimal effect; also recorded: no significant direct cytotoxic effects; also recorded: no direct effect”. In [8], the “dose found to be safe for humans” value is given as not above 16 mg/kg body weight/day.
